For one data set, the system named is HEK293 cells. The experiment in a line: Cell viability / cytotoxicity assay. It counts as cell-based, human. As to conditions: CellTiter-Glo, 18 h.
Another data set has as its target T1, ARα2B (Homo sapiens, UniProt P18089).
T1 sequence (P18089 1-450): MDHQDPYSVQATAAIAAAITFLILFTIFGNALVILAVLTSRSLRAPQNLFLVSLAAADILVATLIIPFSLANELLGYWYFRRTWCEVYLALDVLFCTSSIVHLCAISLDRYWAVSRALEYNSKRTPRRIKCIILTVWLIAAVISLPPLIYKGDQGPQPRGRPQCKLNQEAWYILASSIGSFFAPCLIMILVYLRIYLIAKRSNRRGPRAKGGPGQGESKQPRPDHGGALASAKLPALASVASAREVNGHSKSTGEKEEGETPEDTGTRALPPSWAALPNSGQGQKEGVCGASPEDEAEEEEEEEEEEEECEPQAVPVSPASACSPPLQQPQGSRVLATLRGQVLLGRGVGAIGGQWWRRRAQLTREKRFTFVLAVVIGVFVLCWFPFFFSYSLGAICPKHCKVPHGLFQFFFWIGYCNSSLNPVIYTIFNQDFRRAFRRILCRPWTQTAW
The experiment in a line: ARα2B radioligand. It counts as binding. Conditions: for inhibition at 10 µM: read-out: ARα2B binding (% inhibition at 10 μM).

The next data set addresses T2, ARα2A (Homo sapiens, UniProt P08913).
T2 sequence (P08913 1-465): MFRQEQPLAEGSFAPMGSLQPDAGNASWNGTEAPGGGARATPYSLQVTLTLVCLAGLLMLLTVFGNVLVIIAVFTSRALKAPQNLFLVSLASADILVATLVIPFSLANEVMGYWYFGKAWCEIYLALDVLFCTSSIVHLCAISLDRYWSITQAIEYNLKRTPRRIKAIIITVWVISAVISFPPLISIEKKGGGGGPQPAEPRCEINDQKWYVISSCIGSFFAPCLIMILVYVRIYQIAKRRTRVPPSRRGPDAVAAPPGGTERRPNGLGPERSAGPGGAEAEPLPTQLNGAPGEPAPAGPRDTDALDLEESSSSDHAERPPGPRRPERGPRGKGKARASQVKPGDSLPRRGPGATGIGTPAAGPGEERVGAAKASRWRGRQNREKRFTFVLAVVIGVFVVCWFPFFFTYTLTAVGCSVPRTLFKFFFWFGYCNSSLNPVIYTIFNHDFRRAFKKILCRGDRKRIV
As to the kind of experiment: ARα2A radioligand. It counts as binding. As to conditions: ARα2A binding Ki, competition with 3H-Rauwolscinein; concentration response.

Another data set has as its target T3, ARα2C (Homo sapiens, UniProt P18825).
T3 sequence (P18825 1-462): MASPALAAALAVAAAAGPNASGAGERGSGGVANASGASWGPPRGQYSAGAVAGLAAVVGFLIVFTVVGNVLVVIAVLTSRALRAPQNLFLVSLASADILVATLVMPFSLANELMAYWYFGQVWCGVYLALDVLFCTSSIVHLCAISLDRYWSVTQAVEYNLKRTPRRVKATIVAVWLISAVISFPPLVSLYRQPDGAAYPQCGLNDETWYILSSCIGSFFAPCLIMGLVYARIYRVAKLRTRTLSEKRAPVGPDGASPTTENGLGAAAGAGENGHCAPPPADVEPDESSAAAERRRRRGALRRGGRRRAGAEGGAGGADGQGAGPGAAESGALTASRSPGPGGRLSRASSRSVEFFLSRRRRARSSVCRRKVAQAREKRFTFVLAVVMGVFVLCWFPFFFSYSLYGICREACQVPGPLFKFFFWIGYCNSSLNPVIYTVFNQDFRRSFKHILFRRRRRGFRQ
The experiment in a line: ARα2C radioligand. It counts as binding.

Data set [1] can be described thus: Aqueous solubility, shake flask method. It counts as physicochemical. As to conditions: pH 7.4, PBS, 24 h.

These results are taken from PMC12495306 (RSC Medicinal Chemistry, 2025).

In the case of `C[C@H]1N=C(c2ccccc2F)c2cc(Br)ccc2NC1=O` [Compound 1, (3R)-7-Bromo-5-(2-fluorophenyl)-3-methyl-1,3-dihydro-2H-1,4-benzodiazepin-2-one], in the data set on HEK293 cells, the “Cytotoxicity LD50” value was greater than 300 µM. The inhibition at 10 µM on ARα2B is -6%.
Regarding `Cc1ccc(Nc2ccc3c(c2)C(c2ccccc2F)=NC(C)C(=O)N3)cc1` (stereo not shown) [Compound 3, 5-(2-Fluorophenyl)-3-methyl-7-(4-methylanilino)-1,3-dihydro-2H-1,4-benzodiazepin-2-one], the “Cytotoxicity LD50” value with HEK293 cells turned out to be 62 ± 15 µM. Also, the values for the Ki on ARα2A, at ARα2B and on ARα2C were 2280 nM, 4640 nM and 2160 nM, respectively. Moreover, on ARα2B, the inhibition at 10 µM turned out to be 61%.
As to `COc1ccc(Nc2ccc3c(c2)C(c2ccccc2F)=NC(C)C(=O)N3)cc1` (stereo not shown) [Compound 4, 5-(2-Fluorophenyl)-7-(4-methoxyanilino)-3-methyl-1,3-dihydro-2H-1,4-benzodiazepin-2-one], the “Cytotoxicity LD50” value in the data set with HEK293 cells is 87 ± 32 µM. For the same compound, the inhibition constant Ki on ARα2A stood at 2070 nM; on ARα2C it was 2080 nM. Further, the inhibition at 10 µM on ARα2B is 41%.
With `CC1N=C(c2ccccc2F)c2cc(Nc3ccc(Cl)cc3)ccc2NC1=O` (stereo not shown) [Compound 5, 7-(4-Chloroanilino)-5-(2-fluorophenyl)-3-methyl-1,3-dihydro-2H-1,4-benzodiazepin-2-one], the “Cytotoxicity LD50” value with HEK293 cells came to 87 ± 36 µM. In addition, the figures for the inhibition constant (Ki) at ARα2A, at ARα2B and on ARα2C were 2080 nM, 1410 nM and 1640 nM, respectively. Also, the inhibition at 10 µM at ARα2B is 81%.
With `CC1N=C(c2ccccc2F)c2cc(Nc3ccc([N+](=O)[O-])cc3)ccc2NC1=O` (stereo not shown) [Compound 6, 5-(2-Fluorophenyl)-3-methyl-7-(4-nitroanilino)-1,3-dihydro-2H-1,4-benzodiazepin-2-one], in the data set with HEK293 cells, the “Cytotoxicity LD50” value is 61 ± 10 µM. The compound further had a Ki at ARα2A of 2620 nM. In addition, the inhibition at 10 µM on ARα2B amounted to 36%.
As for `CSc1ccc(Nc2ccc3c(c2)C(c2ccccc2F)=NC(C)C(=O)N3)cc1` (stereo not shown) [Compound 7, 5-(2-Fluorophenyl)-3-methyl-7-((4-(methylthio)phenyl)amino)-1,3-dihydro-2H-1,4-benzodiazepin-2-one], the “Cytotoxicity LD50” value in the data set on HEK293 cells came to 63 ± 12 µM. Besides, the inhibition constant Ki on ARα2A was 3300 nM; at ARα2C, 2410 nM. At ARα2B, the inhibition at 10 µM is 41%.
`CC1N=C(c2ccccc2F)c2cc(Nc3ccc(S(C)(=O)=O)cc3)ccc2NC1=O` (stereo not shown) [Compound 8, 5-(2-Fluorophenyl)-7-(4-methanesulfonylanilino)-3-methyl-1,3-dihydro-2H-1,4-benzodiazepin-2-one]: the “Cytotoxicity LD50” value in the data set on HEK293 cells was greater than 150 µM. Also, the inhibition at 10 µM at ARα2B was -5%.
For `CC1N=C(c2ccccc2F)c2cc(Nc3ccc(C#N)cc3)ccc2NC1=O` (stereo not shown) [Compound 9, 7-(4-Cyanoanilino)-5-(2-fluorophenyl)-3-methyl-1,3-dihydro-2H-1,4-benzodiazepin-2-one] the same measures were 83 ± 29 µM and 23%.
The compound `CC1N=C(c2ccccc2F)c2cc(Nc3ccc(O)cc3)ccc2NC1=O` (stereo not shown) [Compound 10, 5-(2-Fluorophenyl)-7-((4-hydroxyphenyl)amino)-3-methyl-1,3-dihydro-2H-1,4-benzodiazepin-2-one] showed an Aqueous solubility in data set [1] of 197.9 ± 4.04 µM. For the same compound, in the data set on HEK293 cells, the “Cytotoxicity LD50” value turned out to be 135 ± 26 µM. Also, at ARα2B, affinity was put at a Ki of 4180 nM and the inhibition at 10 µM was determined as 52%.
With `COC(=O)c1ccc(Nc2ccc3c(c2)C(c2ccccc2F)=NC(C)C(=O)N3)cc1` (stereo not shown) [Compound 11, 5-(2-Fluorophenyl)-7-(4-methoxycarbonylanilino)-3-methyl-1,3-dihydro-2H-1,4-benzodiazepin-2-one], the “Cytotoxicity LD50” value in the data set on HEK293 cells came out at 88 ± 17 µM. Moreover, the values for the inhibition constant (Ki) on ARα2A and at ARα2C were 2250 nM and 1540 nM, respectively. The inhibition at 10 µM at ARα2B was determined as 44%.
In the case of `CC1N=C(c2ccccc2F)c2cc(Nc3ccc(C(F)(F)F)cc3)ccc2NC1=O` (stereo not shown) [Compound 12, 5-(2-Fluorophenyl)-7-(4-trifluoromethylanilino)-3-methyl-1,3-dihydro-2H-1,4-benzodiazepin-2-one], the “Cytotoxicity LD50” value in the data set on HEK293 cells is greater than 150 µM. Further, at ARα2A, the inhibitory constant (Ki) amounted to 2590 nM. For the same compound, on ARα2B, the inhibition at 10 µM came to 38%.
As to `CC1N=C(c2ccccc2F)c2cc(Nc3ccccc3C#N)ccc2NC1=O` (stereo not shown) [Compound 13, 7-(2-Cyanoanilino)-5-(2-fluorophenyl)-3-methyl-1,3-dihydro-2H-1,4-benzodiazepin-2-one], the “Cytotoxicity LD50” value in the data set with HEK293 cells was greater than 150 µM. Besides, the inhibition at 10 µM on ARα2B stood at 29%.
The matching figures for `CCc1ccccc1Nc1ccc2c(c1)C(c1ccccc1F)=NC(C)C(=O)N2` (stereo not shown) [Compound 16, 7-(2-Ethylanilino)-5-(2-fluorophenyl)-3-methyl-1,3-dihydro-2H-1,4-benzodiazepin-2-one]: greater than 300 µM and -2%.
`Cc1cccc(Nc2ccc3c(c2)C(c2ccccc2F)=NC(C)C(=O)N3)c1` (stereo not shown) [Compound 18, 5-(2-Fluorophenyl)-3-methyl-7-(3-methylanilino)-1,3-dihydro-2H-1,4-benzodiazepin-2-one]: in the data set on HEK293 cells, the “Cytotoxicity LD50” value came to 109 ± 12 µM. Further, the Ki is 2080 nM on ARα2A, 1670 nM at ARα2B and 1180 nM on ARα2C. For the same compound, on ARα2B, the inhibition at 10 µM turned out to be 87%.
For the compound `CC1N=C(c2ccccc2F)c2cc(Nc3cccc(C#N)c3)ccc2NC1=O` (stereo not shown) [Compound 19, 7-(3-Cyanoanilino)-5-(2-fluorophenyl)-3-methyl-1,3-dihydro-2H-1,4-benzodiazepin-2-one], the “Cytotoxicity LD50” value in the data set with HEK293 cells stood at 165 ± 27 µM. For the same compound, at ARα2B, the Ki was found to be 3250 nM and the inhibition at 10 µM was 57%.
Consider `Cc1ccc(Nc2ccc3c(c2)C(c2ccccc2F)=NC(C)C(=O)N3)c(C)c1` (stereo not shown) [Compound 20, 5-(2-Fluorophenyl)-7-(2,4-dimethylanilino)-3-methyl-1,3-dihydro-2H-1,4-benzodiazepin-2-one], for which the “Cytotoxicity LD50” value in the data set on HEK293 cells came to 88 ± 22 µM. Further, the inhibition at 10 µM on ARα2B worked out at 33%.
For `CC1N=C(c2ccccc2F)c2cc(N(C)c3ccccc3)ccc2NC1=O` (stereo not shown) [Compound 21, 5-(2-Fluorophenyl)-7-(N-methylanilino)-3-methyl-1,3-dihydro-2H-1,4-benzodiazepin-2-one], in the data set with HEK293 cells, the “Cytotoxicity LD50” value turned out to be 158 ± 27 µM. Also, the inhibition at 10 µM on ARα2B came to 47%.
Turning to `CC1N=C(c2ccccc2F)c2cc(N3CCOCC3)ccc2NC1=O` (stereo not shown) [Compound 22, 5-(2-Fluorophenyl)-3-methyl-7-(morpholin-4-yl)-1,3-dihydro-2H-1,4-benzodiazepin-2-one], the “Cytotoxicity LD50” value in the data set on HEK293 cells was greater than 300 µM. For the same compound, the inhibition at 10 µM at ARα2B is 27%.
The matching figures for `CC1N=C(c2ccccc2F)c2cc(N3CCCCC3)ccc2NC1=O` (stereo not shown) [Compound 23, 5-(2-Fluorophenyl)-3-methyl-7-(piperidin-1-yl)-1,3-dihydro-2H-1,4-benzodiazepin-2-one]: greater than 300 µM and 61%.
In the case of `CC1N=C(c2ccccc2F)c2cc(NCc3ccccc3)ccc2NC1=O` (stereo not shown) [Compound 24, 7-(Benzylamino)-5-(2-fluorophenyl)-3-methyl-1,3-dihydro-2H-1,4-benzodiazepin-2-one], the “Cytotoxicity LD50” value in the data set with HEK293 cells was greater than 150 µM. Also, the inhibition at 10 µM on ARα2B stood at 46%.
For `CC1N=C(c2ccccc2F)c2cc(NC3CCCCC3)ccc2NC1=O` (stereo not shown) [Compound 26, 7-(Cyclohexylamino)-5-(2-fluorophenyl)-3-methyl-1,3-dihydro-2H-1,4-benzodiazepin-2-one] the same measures were greater than 300 µM and 64%.
For `CC1N=C(c2ccccc2F)c2cc(N(C)C)ccc2NC1=O` (stereo not shown) [Compound 27, 7-(Dimethylamino)-5-(2-fluorophenyl)-3-methyl-1,3-dihydro-2H-1,4-benzodiazepin-2-one] the same measures were greater than 300 µM and 45%.
